US11096917B2, “Composition for preventing or treating muscle diseases, comprising suberic acid or pharmaceutically acceptable salt thereof as active ingredient” (INDUSTRY-ACADEMIC COOPERATION FOUNDATION, YONSEI UNIVERSITY, priority 2017, dated 2021)

Assays:
p-p70S6K1 = test: Western blotting of p-p70S6K1 in dexamethasone-treated myotubes; assay type: cell-based, mouse; details: 100 μM suberic acid + 50 μM dexamethasone, 2 days, vs dexamethasone alone; FIG. 2A
Description: (§1) A mouse myoblast cell line (C2C12 cells) was purchased from the American Type Culture Collection (ATCC, Manassas, Va., USA), and the purchased cells were cultured at 37° C. in a 5% CO2 incubator using a 10% fetal bovine serum medium (Gibco-BRL). When the cultured cells reached 80% confluence, the cells were differentiated into myotubes using a 2% horse serum medium (Gibco-BRL).
(§2) From the fourth day of differentiation, the cells were treated with 50 μM dexamethasone (dexa; Sigma) and 100 μM suberic acid (CAS Number 505-48-6, Sigma) for 2 days.
(§3) The cells were treated with 50 μM dexamethasone (dexa; Sigma) in the same manner as in Example 1.
(§4) To perform Western blotting in the cells, 500 μL of a lysis buffer, which included 100 mM Tris-HCl (pH 7.4), 5 mM EDTA, 50 mM sodium pyrophosphate, 50 mM NaF, 100 mM orthovanadate, 1% Triton X-100, 1 mM phenylmethanesulfonyl fluoride, 2 μg/mL aprotinin, 1 μg/mL pepstatin A, and 1 μg/mL leupeptin, was added to each well from which a medium was removed, and the cell suspension was harvested, and then centrifuged at 4° C. and 1,300×g for 20 minutes. Thereafter, the middle layer was taken, and proteins were quantified according to the Bradford method (Bio-Rad). […] The bands visualized on the X-ray film were scanned, and then quantified using Quantity One analysis software (Bio-Rad).

MuRF1 = test: RT-PCR of MuRF1 gene expression in dexamethasone-treated myotubes; assay type: cell-based, mouse; details: 100 μM suberic acid + 50 μM dexamethasone, 2 days, vs dexamethasone alone; FIG. 2B
Description: as §1, §2, §3
(§5) 1×10^7 mouse myoblast cells were added to 334 μL of a TRIzol solution, and pulverized. Thereafter, the resulting cell solution was centrifuged at 4° C. and 12,000× g for 10 minutes. The supernatant was transferred to a new tube, and 67 μL of chloroform was added thereto, and vortexed. The supernatant was again transferred to a new tube, and isopropanol was added so that a ratio of the supernatant and isopropanol was 1:1. […] A concentration of the extracted RNA sample was measured at wavelengths of 260 nm and 280 nm using a UV/VIS spectrophotometer (Beckman coulter, DU730), and the integrity of the RNA sample was determined by means of agarose gel electrophoresis. […]

p-4E-BP1 = test: Western blotting of p-4E-BP1 in dexamethasone-treated myotubes; assay type: cell-based, mouse; details: 100 μM suberic acid + 50 μM dexamethasone, 2 days, vs dexamethasone alone; FIG. 2A
Description: as §1, §2, §3, §4

C57BL/6N mice [1] = test: H&E staining of muscle tissue, fiber diameter, in high-fat diet mice; assay type: in vivo, mouse; details: 0.2% suberic acid in high fat diet, 10 weeks, vs high-fat diet mice
Text: (§6) Twenty-four 5-week-old male C57BL/6N mice (Mating, Korea) were adapted to laboratory circumstances for a week while feeding a commercially available normal diet (rodent chow), and then assigned into three groups (a Chow group, a HFD group, and a suberic acid-treated group; n=8 mice per group) according to a randomized block design, and bred for 10 weeks. An obesity-inducing diet used in this experiment was a high fat diet (HFD: 40% fat calories, 17 g of lard+3% corn oil/100 g of diet), and a suberic acid-supplemented high fat diet (Suberic Acid) had the same compositions as the HFD, provided that the suberic acid-supplemented high fat diet included 0.2% suberic acid (Table 2). A normal diet group (Chow) took a commercially available rodent chow. The suberic acid was purchased from Sigma-Aldrich Corp.
A muscle tissue was extracted from a mouse, immobilized with 10% formalin, stained with a Hematoxylin and Eosin (H&E) stain, and then submitted to the Korea CFC (Gyeonggi-do, Korea). […]
The statistical analysis of all data was carried out using a statistical package for the social sciences (SPSS version 21.0, IBM, Armonk, N.Y., USA) PC package. In this case, the analyzed numerical values are expressed as the mean±SEM, and a significant difference between the groups was verified using ANOVA.

[2] = test system: mouse myoblast cell line (C2C12 cells); test: Giemsa-Wright staining; thickness, length and fusion index of myotubes reduced by dexamethasone; assay type: cell-based; details: 100 μM suberic acid + 50 μM dexamethasone, 2 days, vs dexamethasone alone
Description: as §1, §2, §3
The myotubes prepared in Example 1 were washed twice with phosphate-buffered saline (PBS), and then immobilized with 100% methanol for 10 minutes. When the immobilization was completed, the myotubes were air-dried at room temperature for 10 minutes, and then stained for 30 minutes by dropwise addition of a Giemsa-Wright staining solution (ASAN Pharmaceutical Co., Ltd., Seoul) which is used to specifically stain myotubes.
The myotubes thus stained were photographed at 100× and 40× magnifications using a fluorescence microscope (IX 71, Olympus), and then analyzed using Image J software (USA). Six regions in each well were randomly selected and photographed using a microscope. The thicknesses, lengths and fusion indexes of at least 100 myoblast cells in each well were analyzed (in triplicate/group).

C57BL/6N mice [3] = test: Grip strength test in high-fat diet-induced muscle loss mice; assay type: in vivo, mouse; details: 0.2% suberic acid in high fat diet, 10 weeks, force (N) per weight (kg), vs high-fat diet mice; FIG. 3 (B)
Text: as §6
To measure grip strength of the mice, at 10 weeks of breeding, the grip strength of the mice was measured using four limbs. A force (N) generated by a mouse gripping a wire grid was measured a total of five times using a grip strength meter (Daejong Instrument Industry Co., Ltd., Korea) equipped with a wire grid (20×10 cm), and an at least one-minute break between every measurement was provided. The experimental results were calculated by dividing the measured force (N) by the weight (kg) of the mouse. […]

MaFbx/atrogin-1 = test: RT-PCR of MaFbx/atrogin-1 gene expression in dexamethasone-treated myotubes; assay type: cell-based, mouse; details: 100 μM suberic acid + 50 μM dexamethasone, 2 days, vs dexamethasone alone; FIG. 2B
Description: as §1, §2, §3, §5

## O=C(O)CCCCCCC(=O)O [suberic acid]
p-p70S6K1
  amount of p-p70S6K protein: significantly increased again
MuRF1
  expression of MuRF1: significantly decreased
p-4E-BP1
  amount of p-4E-BP1 protein: significantly increased again
C57BL/6N mice [1]; FIG. 4 (A)
  increase in fiber diameter of the rectus femoris: 10%
C57BL/6N mice [1]; FIG. 4 (B)
  increase in fiber diameter of the soleus: 15%
[2]; FIG. 1B
  increase in thickness (diameter) of the myotubes: 58%
[2]; FIG. 1C
  increase in fusion index of the myotubes: 53%
[2]; FIG. 1D
  increase in length of the myotubes: 100%
C57BL/6N mice [3]
  increase in grip strength of the mice: approximately 21%
MaFbx/atrogin-1
  expression of MaFbx/atrogin-1: significantly decreased
